We go through seven compounds from patent publication US4530790A, “Cholecystokinin antagonists” (Merck & Co., Inc., priority 1983, dated 1985).

One data set addresses T1, CCK receptor (Rattus norvegicus, UniProt P30551).
T1 construct: The whole pancreas was dissected free of fat tissue and was homogenized; from tissue; host or cells: rat whole pancreas membranes
T1 sequence (P30551 1-444): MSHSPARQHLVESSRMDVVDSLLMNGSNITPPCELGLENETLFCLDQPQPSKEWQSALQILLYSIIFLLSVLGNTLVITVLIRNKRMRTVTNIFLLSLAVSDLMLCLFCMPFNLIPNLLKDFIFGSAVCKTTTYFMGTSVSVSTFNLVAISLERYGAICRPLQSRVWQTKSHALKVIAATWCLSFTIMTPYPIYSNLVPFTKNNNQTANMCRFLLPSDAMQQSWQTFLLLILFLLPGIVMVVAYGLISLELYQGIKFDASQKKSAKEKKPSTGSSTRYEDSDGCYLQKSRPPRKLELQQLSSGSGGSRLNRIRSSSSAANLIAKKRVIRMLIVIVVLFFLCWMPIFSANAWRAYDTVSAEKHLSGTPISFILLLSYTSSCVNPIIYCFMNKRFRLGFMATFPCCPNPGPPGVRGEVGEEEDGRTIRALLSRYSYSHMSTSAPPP
Nature of the data set: CCK receptor binding (inhibition of specific 125I-CCK-33 binding to whole pancreas membranes). Details: species or system Male Sprague-Dawley rats. Conditions: for IC50: rat pancreas, pH 7.7, 37° C., 30 minutes; for effect on the 125I-CCK receptor binding assay: added protease inhibitors, 1.2 mM phenylmethane sulfonyl fluoride, 0.5 mM o-phenanthroline in assay buffer. The method, then:
CCK-33 was radiolabeled with ^125 I-Bolton Hunter reagent (2000 Ci/mmole) as described by Sankara et al. (J. Biol. Chem. 254: 9349-9351, 1979). Receptor binding was performed according to Innis and Snyder (Proc. Natl. Acad. Sci. 77: 6917-6921, 1980) with the minor modification of adding the additional protease inhibitors, phenylmethane sulfonyl fluoride and o-phenanthroline. The latter two compounds have no effect of the ^125 I-CCK receptor binding assay.
Male Sprague-Dawley rats (200-350 g) were sacrificed by decapitation. The whole pancreas was dissected free of fat tissue and was homogenized in 20 volumes of ice-cold 50 mM, Tris HCl (pH 7.7 at 25° C.) with a Brinkmann Polytron PT 10. The homogenates were centrifuged at 48,000 g for 10 min. Pellets were resuspended in Tris Buffer, centrifuged as above and resuspended in 200 volumes of binding assay buffer (50 mM Tris HCl, pH 7.7 at 25° C., 5 mM dithiothreitol, 0.1 mM bacitracin, 1.2 mM phenylmethane sulfonyl fluoride and 0.5 mM o-phenanthroline). For the binding assay, 25 μl of buffer (for total binding) or unlabeled CCK-8 sulfate to give a final concentration of 1 μM (for nonspecific binding) or the compound of Formula I (for determination inhibition of ^125 I-CCK binding) and 25 μl of ^125 I-CCK-33 (30,000-40,000 cpm) were added to 450 μl of the membrane suspensions in microfuge tubes. All assays were run in duplicate or triplicate. The reaction mixtures were incubated at 37° C. for 30 minutes and centrifuged in a Beckman Microfuge (4 minutes) immediately after adding 1 ml of ice-cold incubation buffer. The supernatant was aspirated and discarded, pellets were counted with a Beckman gamma 5000. For Scatchard analysis (Ann. N.Y. Acad. Sci. 51: 660, 1949), ^125 I-CCK-33 was progressively diluted with increasing concentrations of CCK-33.

The target in data set [1] is T2, isolated guinea pig gall bladder (CCK-8) (Cavia porcellus, UniProt Q63931).
T2 construct: The whole gall bladder was dissected free from adjacent tissues; from tissue; host or cells: guinea pig gall bladder
T2 sequence (Q63931 1-430): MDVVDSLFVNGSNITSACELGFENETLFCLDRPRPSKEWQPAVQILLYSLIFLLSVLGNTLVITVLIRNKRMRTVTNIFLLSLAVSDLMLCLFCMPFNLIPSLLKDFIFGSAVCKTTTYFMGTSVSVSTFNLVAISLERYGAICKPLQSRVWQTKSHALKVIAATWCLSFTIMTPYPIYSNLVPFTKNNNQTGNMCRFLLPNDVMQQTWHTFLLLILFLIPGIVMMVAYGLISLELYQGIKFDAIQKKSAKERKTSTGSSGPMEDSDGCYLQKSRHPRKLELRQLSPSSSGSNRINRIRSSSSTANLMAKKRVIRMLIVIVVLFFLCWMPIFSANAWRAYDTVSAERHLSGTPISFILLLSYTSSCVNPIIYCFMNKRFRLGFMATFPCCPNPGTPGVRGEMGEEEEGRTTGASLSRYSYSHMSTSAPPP
Nature of the data set: Isolated guinea pig gall bladder, antagonism of CCK-8 induced contraction. Details: species or system Male Hartley guinea pigs. The method, then:
Male Hartley guinea pigs (400-600 g) were sacrificed by decapitation. The whole gall bladder was dissected free from adjacent tissues and its content gently squeezed out. The whole bladder was suspended in 5 ml organ bath under 1 g tension. The organ bath contained a Kreb's bicarbonate solution (NaCl 118 mM, KCl 4.75 mM, CaCl 2.54 mM, KH2 PO4 1.19 mM, Mg SO4 1.2 mM, NaHCO3 25 mM and dextrose 11 mM) maintained at 32° C. and bubbled with 95% O2 and 5% CO2. Isometric contractions were recorded using Statham (60 g; 0.12 mm) strain gauges and a Hewlett-Packard (77588) recorder. The tissues were washed every 10 minutes for 1 hr to obtain equilibrium prior to the beginning of the study. CCK-8 was added cumulatively to the baths and EC50 's determined using regression analysis. After washout (every 10 minutes for 1 hr), the compound of Formula I was added at least 5 minutes before the addition of CCK-8 and the EC50 of CCK-8 in the presence of the compound of Formula I similarly determined. The PA2 values and slope were obtained from regression analysis of a Schild plot (Brit. J. Pharmacol. 14: 48-58, 1959) using three concentrations of the compound of Formula I and 3-4 tissues at each concentration.

The target of data set [2] is T3, isolated longitudinal muscle of guinea pig ileum (CCK-8) (Cavia porcellus, UniProt Q63931).
T3 construct: Longitudinal muscle strips with attached nerve plexus were prepared; from tissue; host or cells: guinea pig ileum longitudinal muscle with attached nerve plexus
T3 sequence (Q63931 1-430): T2 sequence (Q63931 1-430)
As to the kind of experiment: Isolated longitudinal muscle of guinea pig ileum, antagonism of CCK-8 induced contraction. Details: species or system Male Hartley guinea pigs. The method, then:
Longitudinal muscle strips with attached nerve plexus were prepared as described previously (Brit J. Pharmac. 23:; 356-363, 1964; J. Physiol. 194: 13-33, 1969). Male Hartley guinea pigs were decapitated and the ileum was removed (10 cm of the terminal ileum was discarded and the adjacent 20 cm piece was used). A piece (10 cm) of the ileum was stretched on a glass pipette. Using a cotton applicator to stroke tangently away from the mesentery attachment at one end, the longitudinal muscle was separated from the underlying circular muscle. The longitudinal muscle was then tied to a thread and by gently pulling, stripped away from the entire muscle. A piece of approximately 2 cm was suspended in 5 ml organ bath containing Krebs solution and bubbled with 95% O2 and 5% CO2 at 37° C. under 0.5 g tension. CCK-8 was added cumulatively to the baths and EC50 and pA2 values determined as described in the gall bladder preparation (above).

Another data set deals with CCK. As to the kind of experiment: Capacity to antagonize CCK, relative to the compound of Formula I. The settings on record: based on the activity of the compound of Formula I (1 x). From the text:
The minor components A-D have also been tested for their capacity to antagonize CCK. Based on the activity of the compound of Formula I, the minor components relative activities are: […]

Data set [3] is described as follows: Solubility characteristics. Format: physicochemical.

A word on the Ki: it is a dissociation constant, usually derived from enzyme kinetics or from competition with a known ligand. Usually IC50 stands for the concentration needed to halve the response being measured. Take `CC(C)C[C@@H]1N[C@H]2N(C1=O)c1ccccc1[C@@]2(O)C[C@@H]1NC(=O)c2ccccc2-n2c1nc1ccccc1c2=O` [Formula I]: the “effect on KD (dissociation constant) and Bmax (maximum receptor number) of 125I-CCK-33” value on CCK receptor (Scatchard analysis, 1.3 μM) is “increased the KD (dissociation constant) without affecting the Bmax (maximum receptor number)”. Moreover, the “mode of inhibition of specific 125I-CCK-33 receptor binding” value on CCK receptor (Scatchard analysis, absence and presence of 1.3 μM) is “competitively inhibited specific ^125 I-CCK-33 receptor binding”. The Ki at CCK receptor (estimated, 125I-CCK-33 receptor binding, read-out: Ki value (dissociation constant of inhibitor)) was 900 nM; in data set [1] (from Schild plot pA2, read-out: Ki value corresponding to pA2 (converted)), 1000 nM; in data set [2] (from Schild plot pA2, read-out: Ki corresponding to pA2 (converted)), 400 nM. Moreover, the half-maximal inhibitory concentration (IC50) on CCK receptor is 1310 nM; on CCK receptor (printed in parentheses) it was 1300 nM. For the same compound, the “effect on CCK-8 dose-response” value in data set [1] (1.3-13 μM) and in data set [2] (1.3-13 μM) was “concentration dependent parallel shift to the right of the CCK-8 dose-response without change in the maximal contractile response” each time. Further, the mode of antagonism result in data set [1] (CCK-8) is recorded as “competitive antagonist of CCK-8”; in data set [2] it was “competitive antagonism of CCK”. Moreover, the “slope of the Schild plot” value in data set [1] (CCK-8) was found to be 0.95±0.19; in data set [2] (CCK-8), 0.89±0.20. The Kb in data set [1] (CCK-8, three concentrations, 3-4 tissues each, read-out: pA2 value (Schild plot) (converted)) is 1000 nM; in data set [2] (CCK-8, read-out: pA2 value (Schild plot) (converted)), 398 nM. The “relative activity to antagonize CCK” value with CCK was 1 x. Further, in data set [3] (CHCl3, MeOH, EtOH, acetone, DMSO), the “solubility: soluble in” value is given as “soluble in: CHCl3, MeOH, EtOH, acetone, DMSO”. For the same compound, the “solubility: insoluble in” value in data set [3] (H2O, hexane, pet. ether) is “insoluble in: H2 O, hexane, pet. ether”.

`CC(C)C[C@H]1C(=O)N2c3ccccc3[C@@](O)(C[C@@H]3NC(=O)c4ccccc4-n4c3nc3ccccc3c4=O)[C@H]2N1O` [Component D]: the “relative activity to antagonize CCK” value in the data set with CCK is given as 5 x.

Take `O=C1NC(Cc2c[nH]c3ccccc23)c2nc3ccccc3c(=O)n2-c2ccccc21` (stereo not drawn) [Component B]: the “relative activity to antagonize CCK” value with CCK is given as 1/7.

For the compound `O=C1c2ccccc2-n2c(nc3ccccc3c2=O)[C@@H]2C[C@]3(O)c4ccccc4N[C@@H]3N12` [Component A], the “relative activity to antagonize CCK” value in the data set with CCK is given as 1/70.

For `c1cnc2c(c1)ccc1cccnc12` [o-phenanthroline, reference compound], the “effect on the 125I-CCK receptor binding assay” value at CCK receptor was “no effect”.

Consider `O=C1Nc2ccccc2-c2nc3ccccc3c(=O)n2C1Cc1c[nH]c2ccccc12` (stereo not drawn) [Component C], for which the “relative activity to antagonize CCK” value in the data set on CCK was 1/30.

Consider `O=S(=O)(F)Cc1ccccc1` [phenylmethane sulfonyl fluoride, reference compound], for which, on CCK receptor, the “effect on the 125I-CCK receptor binding assay” value is “no effect”.
